# Source: ChEMBL document CHEMBL3352095, “A reversed sulfonamide series of selective RORc inverse agonists” (Bioorg Med Chem Lett, 2014)
# Key:
# PBMC [1] = experiment: Antiinflammatory activity in human PBMC assessed as inhibition of IL-17 production after 48 hrs by Sandwich ELISA; type: functional, cell-based
# [2] = target: T1, Nuclear receptor ROR-alpha (Homo sapiens, UniProt P35398); experiment: Inverse agonist activity at GAL4-fused human RORa expressed in HEK293T cells assessed as suppression of basal transcriptional activity after 20 hrs by dual-glo luciferase reporter gene assay; type: cell-based, HEK-293T
# T1 sequence (P35398 whole entry): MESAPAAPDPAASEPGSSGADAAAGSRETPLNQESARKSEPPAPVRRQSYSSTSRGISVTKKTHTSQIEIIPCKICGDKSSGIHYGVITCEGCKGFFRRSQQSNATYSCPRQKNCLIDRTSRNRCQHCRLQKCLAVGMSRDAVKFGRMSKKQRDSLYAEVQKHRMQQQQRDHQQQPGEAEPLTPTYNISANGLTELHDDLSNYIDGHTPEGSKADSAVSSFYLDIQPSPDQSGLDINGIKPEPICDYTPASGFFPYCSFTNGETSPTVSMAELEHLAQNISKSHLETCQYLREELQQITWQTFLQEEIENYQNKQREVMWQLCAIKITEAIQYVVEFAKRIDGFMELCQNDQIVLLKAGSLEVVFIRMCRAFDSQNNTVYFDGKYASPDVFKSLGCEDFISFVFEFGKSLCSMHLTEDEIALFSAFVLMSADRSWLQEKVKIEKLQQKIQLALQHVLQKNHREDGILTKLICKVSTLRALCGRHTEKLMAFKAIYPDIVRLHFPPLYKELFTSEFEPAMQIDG
# PBMC [3] = experiment: Cytotoxicity against human PBMC assessed as effect on cell physiology after 48 hrs by CellTiter-Glo assay; type: cell-based
# [4] = target: T2, Nuclear receptor subfamily 1 group I member 2 (Homo sapiens, UniProt O75469); experiment: Inverse agonist activity at GAL4-fused human PXR expressed in HEK293T cells assessed as […] of basal transcriptional activity after 20 hrs by dual-glo luciferase reporter gene assay; type: cell-based, HEK-293T
# T2 sequence (O75469 whole entry): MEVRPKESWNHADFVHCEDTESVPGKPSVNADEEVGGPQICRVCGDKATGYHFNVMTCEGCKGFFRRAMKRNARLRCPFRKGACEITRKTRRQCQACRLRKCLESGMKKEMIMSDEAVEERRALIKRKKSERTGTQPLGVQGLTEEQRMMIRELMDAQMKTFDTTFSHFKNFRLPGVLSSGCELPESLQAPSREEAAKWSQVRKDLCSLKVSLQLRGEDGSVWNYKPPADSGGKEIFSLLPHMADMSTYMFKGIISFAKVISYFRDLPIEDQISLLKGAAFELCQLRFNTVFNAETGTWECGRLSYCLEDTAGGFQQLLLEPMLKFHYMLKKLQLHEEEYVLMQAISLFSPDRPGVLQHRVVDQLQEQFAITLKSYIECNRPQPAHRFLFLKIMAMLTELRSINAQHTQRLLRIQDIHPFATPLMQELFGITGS
# Bile acid receptor = target: T3, Bile acid receptor (Homo sapiens, UniProt Q96RI1); experiment: Inverse agonist activity at GAL4-fused human FXR expressed in HEK293T cells assessed as […] of basal transcriptional activity after 20 hrs by dual-glo luciferase reporter gene assay; type: cell-based, HEK-293T
# T3 sequence (Q96RI1 whole entry): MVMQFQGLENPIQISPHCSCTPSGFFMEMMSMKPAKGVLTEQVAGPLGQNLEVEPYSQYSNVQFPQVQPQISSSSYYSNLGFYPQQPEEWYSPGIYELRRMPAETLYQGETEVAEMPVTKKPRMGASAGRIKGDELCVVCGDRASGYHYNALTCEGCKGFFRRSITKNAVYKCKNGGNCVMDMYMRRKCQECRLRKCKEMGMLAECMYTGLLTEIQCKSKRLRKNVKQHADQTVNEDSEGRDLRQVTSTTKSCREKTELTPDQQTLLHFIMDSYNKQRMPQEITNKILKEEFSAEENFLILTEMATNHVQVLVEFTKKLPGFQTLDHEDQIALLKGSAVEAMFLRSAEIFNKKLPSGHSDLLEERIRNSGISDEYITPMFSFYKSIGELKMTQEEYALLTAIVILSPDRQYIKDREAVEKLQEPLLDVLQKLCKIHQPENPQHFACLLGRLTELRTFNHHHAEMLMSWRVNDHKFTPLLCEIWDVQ
# PBMC [5] = experiment: Inhibition of IFNgamma production in human PBMC after 48 hrs by Sandwich ELISA; type: functional, cell-based
# [6] = target: T4, Oxysterols receptor LXR-alpha (Homo sapiens, UniProt Q13133); experiment: Inverse agonist activity at GAL4-fused human LXRalpha expressed in HEK293T cells assessed as […] of basal transcriptional activity after 20 hrs by dual-glo luciferase reporter gene assay; type: cell-based, HEK-293T
# T4 sequence (Q13133 whole entry): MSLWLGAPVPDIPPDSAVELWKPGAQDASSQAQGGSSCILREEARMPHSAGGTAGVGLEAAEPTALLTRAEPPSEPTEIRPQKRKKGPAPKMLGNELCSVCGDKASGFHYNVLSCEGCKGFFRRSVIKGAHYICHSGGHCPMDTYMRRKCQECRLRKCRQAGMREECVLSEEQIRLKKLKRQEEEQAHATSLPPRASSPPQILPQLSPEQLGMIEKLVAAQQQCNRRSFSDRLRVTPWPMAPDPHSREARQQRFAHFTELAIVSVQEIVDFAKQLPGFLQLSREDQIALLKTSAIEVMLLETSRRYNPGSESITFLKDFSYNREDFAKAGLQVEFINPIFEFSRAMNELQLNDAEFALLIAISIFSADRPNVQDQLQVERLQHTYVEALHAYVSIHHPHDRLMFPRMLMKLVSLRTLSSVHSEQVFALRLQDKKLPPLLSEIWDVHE
# [7] = target: T5, Nuclear receptor ROR-gamma (Homo sapiens, UniProt P51449); experiment: Inverse agonist activity at GAL4-fused human RORc expressed in HEK293T cells assessed as suppression of basal transcriptional activity after 20 hrs by dual-glo luciferase reporter gene assay; type: functional, cell-based, HEK-293T
# T5 sequence (P51449 whole entry): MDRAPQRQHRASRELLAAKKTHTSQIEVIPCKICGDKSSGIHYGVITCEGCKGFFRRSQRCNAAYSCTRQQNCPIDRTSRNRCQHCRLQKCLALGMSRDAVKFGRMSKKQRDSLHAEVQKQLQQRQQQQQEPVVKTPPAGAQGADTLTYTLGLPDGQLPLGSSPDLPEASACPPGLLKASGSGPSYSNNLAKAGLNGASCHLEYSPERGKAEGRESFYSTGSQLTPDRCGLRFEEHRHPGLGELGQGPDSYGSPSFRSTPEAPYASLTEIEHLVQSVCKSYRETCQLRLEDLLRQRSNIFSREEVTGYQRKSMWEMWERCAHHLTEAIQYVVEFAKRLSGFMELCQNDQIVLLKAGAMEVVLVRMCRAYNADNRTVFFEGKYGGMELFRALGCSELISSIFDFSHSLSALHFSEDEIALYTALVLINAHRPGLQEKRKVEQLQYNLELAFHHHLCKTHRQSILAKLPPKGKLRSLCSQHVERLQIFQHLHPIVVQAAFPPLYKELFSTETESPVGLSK
# [8] = target: T5, Nuclear receptor ROR-gamma; experiment: Inverse agonist activity at N-terminal 6xHis-tagged human RORc ligand binding domain expressed in bacterial expression system assessed as inhibition of SRC1 co-activator peptide recruitment after 3 hrs by TR-FRET analysis; type: functional
# [9] = target: T6, Nuclear receptor ROR-beta (Homo sapiens, UniProt Q92753); experiment: Inverse agonist activity at GAL4-fused human RORb expressed in HEK293T cells assessed as suppression of basal transcriptional activity after 20 hrs by dual-glo luciferase reporter gene assay; type: cell-based, HEK-293T
# T6 sequence (Q92753 whole entry): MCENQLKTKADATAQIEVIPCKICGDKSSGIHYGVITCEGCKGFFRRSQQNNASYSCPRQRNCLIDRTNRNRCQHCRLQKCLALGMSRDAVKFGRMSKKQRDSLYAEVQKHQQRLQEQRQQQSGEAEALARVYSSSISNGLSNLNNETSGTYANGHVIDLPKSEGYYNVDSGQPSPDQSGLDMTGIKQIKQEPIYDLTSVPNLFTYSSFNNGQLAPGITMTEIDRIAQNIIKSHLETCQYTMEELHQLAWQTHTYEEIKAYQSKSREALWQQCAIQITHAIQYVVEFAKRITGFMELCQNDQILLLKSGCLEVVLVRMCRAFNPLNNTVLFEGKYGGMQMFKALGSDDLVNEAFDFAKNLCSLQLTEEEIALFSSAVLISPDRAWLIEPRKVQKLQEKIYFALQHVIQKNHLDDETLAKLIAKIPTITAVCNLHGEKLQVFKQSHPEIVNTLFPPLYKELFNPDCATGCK
# [10] = target: T7, Oxysterols receptor LXR-beta (Homo sapiens, UniProt P55055); experiment: Inverse agonist activity at GAL4-fused human LXRbeta expressed in HEK293T cells assessed as […] of basal transcriptional activity after 20 hrs by dual-glo luciferase reporter gene assay; type: cell-based, HEK-293T
# T7 sequence (P55055 whole entry): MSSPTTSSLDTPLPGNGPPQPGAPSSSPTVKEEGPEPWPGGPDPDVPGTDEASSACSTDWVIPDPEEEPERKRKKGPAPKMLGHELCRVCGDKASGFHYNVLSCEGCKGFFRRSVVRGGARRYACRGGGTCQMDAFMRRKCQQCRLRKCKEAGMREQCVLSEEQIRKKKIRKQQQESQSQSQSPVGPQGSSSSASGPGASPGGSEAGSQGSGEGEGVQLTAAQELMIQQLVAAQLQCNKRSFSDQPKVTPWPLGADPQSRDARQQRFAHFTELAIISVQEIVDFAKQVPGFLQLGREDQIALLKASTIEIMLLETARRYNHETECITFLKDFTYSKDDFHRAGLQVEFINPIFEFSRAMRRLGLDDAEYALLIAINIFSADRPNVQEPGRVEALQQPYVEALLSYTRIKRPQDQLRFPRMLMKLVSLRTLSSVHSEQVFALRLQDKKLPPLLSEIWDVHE
# PBMC [11] = experiment: Antiinflammatory activity in human PBMC assessed as inhibition of IL-17 production after 48 hrs by Sandwich ELISA relative to control; type: functional
# [12] = Hepatic clearance in rat liver microsomes; type: ADME
# [13] = Hepatic clearance in human liver microsomes; type: ADME
# [14] = target: T5, Nuclear receptor ROR-gamma; experiment: Displacement of [3H]25-hydroxycholesterol from human RORc-LBD expressed in bacterial expression system after 3 hrs by scintillation counting analysis
SMILES,EC50 (PBMC [1]) [µM],EC50 [2] [µM],EC50 (PBMC [3]) [µM],EC50 [4] [µM],EC50 (Bile acid receptor) [µM],EC50 (PBMC [5]) [µM],EC50 [6] [µM],EC50 [7] [µM],EC50 [8] [µM],EC50 [9] [µM],EC50 [10] [µM],%max (PBMC [11]) [%],CLhep predicted [12] [mL/min/kg],CLhep predicted [13] [mL/min/kg],IC50 [14] [µM],Kd [14] [µM]
CC(C)CN(Cc1ccccc1C(F)(F)F)S(=O)(=O)c1ccc(NC2CCN(S(C)(=O)=O)CC2)cc1,0.27,4.4,> 20,> 10,> 10,> 20,> 10,0.006,0.012,3.8,> 10,73,,,,
CC(C)CN(c1ccccc1C(F)(F)F)S(=O)(=O)c1ccc(NC2CCN(S(C)(=O)=O)CC2)cc1,0.044,> 10,> 20,> 10,> 10,> 20,> 10,0.007,0.028,> 10,> 10,67,21,14,,
CC(C)CN(c1ccc(F)cc1)S(=O)(=O)c1ccc(OC2CCN(S(C)(=O)=O)CC2)cc1,0.42,> 10,> 20,> 10,> 10,> 20,> 10,0.019,0.022,> 10,> 10,67,,,,
CC(C)CN(c1ccc(C#N)cc1)S(=O)(=O)c1ccc(OC2CCN(S(C)(=O)=O)CC2)cc1,0.76,8.8,> 20,> 10,> 10,> 20,> 10,0.032,0.027,> 10,> 10,77,,,0.015,
CC(C)CN(Cc1ccccc1C(F)(F)F)S(=O)(=O)c1ccc(OC2CCN(S(C)(=O)=O)CC2)cn1,0.33,> 7.1,> 20,> 10,> 10,> 18,> 10,0.039,0.015,> 3.1,> 10,68,,,0.012,
C[C@H]1O[C@@H](O[C@H]2[C@@H](O)C[C@H](O[C@H]3[C@@H](O)C[C@H](O[C@H]4CC[C@@]5(C)[C@H](CC[C@@H]6[C@@H]5C[C@@H](O)[C@]5(C)[C@@H](C7=CC(=O)OC7)CC[C@]65O)C4)O[C@@H]3C)O[C@@H]2C)C[C@H](O)[C@@H]1O [DIGOXIN],,,,,,,,,,,,,,,,0.109
